Assay results reported in the NIST ThermoML archive (doi:10.1016/j.fluid.2015.08.029).
Numbers after ± are expanded uncertainties.

Test: xn = mol fraction of the nth substance listed
Conditions: Buoyancy - hydrostatic balance with magnetic suspension - one sinker, x2 = 0.95

C [methane] + O=C=O
Conditions | mass density [kg/m3]
300.07 K, 7972.2 kPa, Fluid (supercritical or subcritical phases) | 556.595 ± 4.8
300.14 K, 8371 kPa, Fluid (supercritical or subcritical phases) | 616.06 ± 2.2
300.14 K, 8570.3 kPa, Fluid (supercritical or subcritical phases) | 633.917 ± 1.8
300.15 K, 8770.2 kPa, Fluid (supercritical or subcritical phases) | 648.153 ± 1.5
300.15 K, 8969.4 kPa, Fluid (supercritical or subcritical phases) | 660.072 ± 1.4
300.15 K, 9169.7 kPa, Fluid (supercritical or subcritical phases) | 670.371 ± 1.3
300.15 K, 9370.4 kPa, Fluid (supercritical or subcritical phases) | 679.432 ± 1.2
300.15 K, 9569.6 kPa, Fluid (supercritical or subcritical phases) | 687.435 ± 1.1
300.15 K, 9968.4 kPa, Fluid (supercritical or subcritical phases) | 701.498 ± 1
300.16 K, 9768.4 kPa, Fluid (supercritical or subcritical phases) | 694.681 ± 1
300.17 K, 8169.8 kPa, Fluid (supercritical or subcritical phases) | 590.047 ± 2.9
301.07 K, 7972.4 kPa, Fluid (supercritical or subcritical phases) | 491.013 ± 5.4
301.08 K, 7573.6 kPa, Liquid | 317.651 ± 2.7
301.11 K, 7972.7 kPa, Liquid | 489.743 ± 1.1
301.11 K, 8970.7 kPa, Liquid | 641.991 ± 1.2
301.13 K, 6976 kPa, Gas | 227.803 ± 0.27
301.13 K, 7872.3 kPa, Liquid | 446.609 ± 5.7
301.14 K, 4003.5 kPa, Gas | 86.6567 ± 0.21
301.14 K, 5978.2 kPa, Gas | 160.13 ± 0.2
301.14 K, 7972.1 kPa, Liquid | 486.831 ± 5.6
301.14 K, 8170.1 kPa, Liquid | 548.746 ± 4.2
301.14 K, 8371.5 kPa, Fluid (supercritical or subcritical phases) | 585.039 ± 2.7
301.14 K, 8570.7 kPa, Fluid (supercritical or subcritical phases) | 609.188 ± 2.1
301.14 K, 9969.4 kPa, Liquid | 689.045 ± 0.53
301.14 K, 10967 kPa, Liquid | 718.917 ± 0.54
301.14 K, 11966 kPa, Liquid | 741.154 ± 0.54
301.15 K, 1990.5 kPa, Gas | 37.5288 ± 0.13
301.15 K, 2980.5 kPa, Gas | 59.7905 ± 0.17
301.15 K, 4979.8 kPa, Gas | 117.931 ± 0.27
301.15 K, 7772.9 kPa, Liquid | 394.053 ± 5.1
301.15 K, 8071.6 kPa, Liquid | 522.073 ± 5
301.15 K, 8271.7 kPa, Liquid | 569.213 ± 3.7
301.15 K, 8770.5 kPa, Fluid (supercritical or subcritical phases) | 627.154 ± 1.7
301.15 K, 8970.7 kPa, Fluid (supercritical or subcritical phases) | 641.721 ± 1.5
301.15 K, 9370.6 kPa, Fluid (supercritical or subcritical phases) | 664.364 ± 1.3
301.15 K, 9568.5 kPa, Fluid (supercritical or subcritical phases) | 673.475 ± 1.2
301.15 K, 9768.6 kPa, Fluid (supercritical or subcritical phases) | 681.815 ± 1.1
301.15 K, 9968.2 kPa, Fluid (supercritical or subcritical phases) | 689.247 ± 1
301.16 K, 7673.5 kPa, Liquid | 347.909 ± 4
301.16 K, 9169.7 kPa, Fluid (supercritical or subcritical phases) | 653.715 ± 1.4
301.17 K, 8170.5 kPa, Fluid (supercritical or subcritical phases) | 547.088 ± 3.9
302.07 K, 7971.5 kPa, Fluid (supercritical or subcritical phases) | 416.856 ± 4.9
302.09 K, 7574.3 kPa, Liquid | 293.998 ± 2.2
302.14 K, 7873.7 kPa, Liquid | 376.389 ± 5.4
302.14 K, 8073.1 kPa, Liquid | 455.2 ± 5.5
302.14 K, 8171.5 kPa, Liquid | 491.43 ± 4.8
302.14 K, 8273.3 kPa, Liquid | 521.984 ± 4
302.15 K, 7774.4 kPa, Liquid | 340.924 ± 4.2
302.15 K, 7973.5 kPa, Liquid | 414.824 ± 5.7
302.15 K, 8570 kPa, Fluid (supercritical or subcritical phases) | 578.598 ± 2.4
302.15 K, 8769.9 kPa, Fluid (supercritical or subcritical phases) | 602.454 ± 1.9
302.15 K, 8969.1 kPa, Fluid (supercritical or subcritical phases) | 620.555 ± 1.6
302.15 K, 9168.8 kPa, Fluid (supercritical or subcritical phases) | 635.22 ± 1.4
302.15 K, 9369 kPa, Fluid (supercritical or subcritical phases) | 647.538 ± 1.3
302.16 K, 7674.4 kPa, Liquid | 312.96 ± 3.1
302.16 K, 8169.9 kPa, Fluid (supercritical or subcritical phases) | 489.715 ± 4.5
302.16 K, 8371.1 kPa, Fluid (supercritical or subcritical phases) | 543.85 ± 3.3
302.16 K, 9568.3 kPa, Fluid (supercritical or subcritical phases) | 658.091 ± 1.2
302.16 K, 9768.3 kPa, Fluid (supercritical or subcritical phases) | 667.497 ± 1.1
302.16 K, 9970.6 kPa, Fluid (supercritical or subcritical phases) | 676.016 ± 1.1
303.08 K, 7971 kPa, Fluid (supercritical or subcritical phases) | 368.276 ± 3.8
303.15 K, 8169 kPa, Fluid (supercritical or subcritical phases) | 434.951 ± 4.6
303.15 K, 8369.8 kPa, Fluid (supercritical or subcritical phases) | 500.535 ± 4.1
303.15 K, 8569.4 kPa, Fluid (supercritical or subcritical phases) | 546.267 ± 3.2
303.15 K, 8770.2 kPa, Fluid (supercritical or subcritical phases) | 577.054 ± 2.5
303.16 K, 9168.7 kPa, Fluid (supercritical or subcritical phases) | 616.875 ± 1.7
303.16 K, 9368.4 kPa, Fluid (supercritical or subcritical phases) | 631.164 ± 1.5
303.16 K, 9567.7 kPa, Fluid (supercritical or subcritical phases) | 643.384 ± 1.4
303.16 K, 9967.1 kPa, Fluid (supercritical or subcritical phases) | 663.476 ± 1.2
303.17 K, 8969.3 kPa, Fluid (supercritical or subcritical phases) | 598.947 ± 2
303.17 K, 9768 kPa, Fluid (supercritical or subcritical phases) | 653.938 ± 1.3
304.1 K, 7971.1 kPa, Fluid (supercritical or subcritical phases) | 329.354 ± 2.6
304.14 K, 8569.2 kPa, Fluid (supercritical or subcritical phases) | 496.33 ± 3.8
304.14 K, 8968.4 kPa, Fluid (supercritical or subcritical phases) | 567.739 ± 2.5
304.15 K, 8769.3 kPa, Fluid (supercritical or subcritical phases) | 537.629 ± 3
304.15 K, 9169.5 kPa, Fluid (supercritical or subcritical phases) | 590.204 ± 2
304.15 K, 9567.9 kPa, Fluid (supercritical or subcritical phases) | 622.735 ± 1.6
304.16 K, 8171.5 kPa, Fluid (supercritical or subcritical phases) | 378.227 ± 3.7
304.16 K, 9973.8 kPa, Fluid (supercritical or subcritical phases) | 646.365 ± 1.3
304.17 K, 8370 kPa, Fluid (supercritical or subcritical phases) | 438.794 ± 4.3
304.17 K, 9370.7 kPa, Fluid (supercritical or subcritical phases) | 607.811 ± 1.8
304.17 K, 9767.3 kPa, Fluid (supercritical or subcritical phases) | 634.947 ± 1.4
305.11 K, 7971.7 kPa, Fluid (supercritical or subcritical phases) | 307.661 ± 1.8
305.15 K, 8371 kPa, Fluid (supercritical or subcritical phases) | 394.247 ± 3.3
305.15 K, 8569.8 kPa, Fluid (supercritical or subcritical phases) | 449.045 ± 3.6
305.15 K, 8769.4 kPa, Fluid (supercritical or subcritical phases) | 497.809 ± 3.2
305.15 K, 8968.6 kPa, Fluid (supercritical or subcritical phases) | 535.323 ± 2.7
305.15 K, 9168.3 kPa, Fluid (supercritical or subcritical phases) | 563.28 ± 2.2
305.15 K, 9568.1 kPa, Fluid (supercritical or subcritical phases) | 602.629 ± 1.6
305.16 K, 8169.9 kPa, Fluid (supercritical or subcritical phases) | 344.406 ± 2.5
